In US12172975B2, “1H-indazole carboxamides as receptor-interacting protein kinase 1 inhibitors (RIPK1)” (BRISTOL-MYERS SQUIBB COMPANY, priority 2018, dated 2024):
Where a name gives a salt, the structure may show the parent alone. Read-outs that look alike come from different tables or passages of the source.

How the values were obtained:
[1] = test system: MLKL phosphorylation in HT29-L23 human colorectal adenocarcinoma cells; test: MLKL Phosphorylation High-Content Assay; format: cell-based; conditions: 6 h, necroptosis induced with TNFα, SMAC mimetic and Z-VAD, read-out: pMLKL (IC50)
Protocol: MLKL Phosphorylation High-Content Assay
HT29-L23 human colorectal adenocarcinoma cells were maintained in RPMI 1640 medium containing 10% heat-inactivated FBS, 1% Penicillin-Streptomycin and 10 mM HEPES. Cells were seeded at 2,000 cells/well in 384 well tissue culture-treated microplates (Greiner #781090-3B) and incubated at 37° C. (5% CO2/95% O2) for 2 d. […] (5% CO2/95% O2). Necroptopsis was induced using a mixture of human TNFα (35 ng/mL) (Peprotech #300-01A), SMAC mimetic (from US 2015/0322111 A1) (700 nM) and Z-VAD ([…]) (BD pharmingen #51-6936). Following 6 h incubation at 37° C. (5% CO2/95% O2), the cells were fixed with 4% formaldehyde (ACROS 11969-0010) for 15 min at rt, then permeabilized with phosphate buffered saline (PBS) containing 0.2% Triton-X-100 for 10 min. MLKL phosphorylation was detected using anti-MLKL (phospho S358) antibody (Abeam #ab 187091) (1:1000 dilution in Blocking Buffer [PBS supplemented with 0.1% BSA]) with ON incubation at 4° C. After washing three times in PBS, goat anti-rabbit Alexa-488 (1:1000 dilution) (Life Technologies, A11008) and Hoechst 33342 (Life Technologies, H3570) (1:2000 dilution) in Blocking Buffer were added for 1 h at rt.
Following another three cycles of washes in PBS, the microplates were sealed, and cellular images were acquired in the Cellomics ArrayScan VTI high-content imager equipped with an X1 camera. Fluorescent images were taken using a 10× objective and the 386-23 BGRFRN_BGRFRN and 485-20 BGRFRN_BGRFRN filter sets, for nuclei and MLKL phosphorylation, respectively. The image sets were analyzed using the Compartmental Analysis Bioapplication software (Cellomics). The level of MLKL phosphorylation was quantified as MEAN_CircRingAvglntenRatio. The maximal inhibitory response was defined by the activity induced by Neels (CAS #: 852391-15-2, 6.25 μM). […] The data were fitted using the 4-parameter logistic equation to calculate the IC50 and Ymax values.

[2] = biological target: His-GST-TVMV-hRIPK1 (1-324) (Homo sapiens (Human), UniProt Q13546); test: RIPK1 HTRF Binding Assay; conditions: read-out: RIPK1 HTRF (IC50); FRET probe displacement, 1 h at rt
Sequence of His-GST-TVMV-hRIPK1 (1-324) (Q13546 1-324): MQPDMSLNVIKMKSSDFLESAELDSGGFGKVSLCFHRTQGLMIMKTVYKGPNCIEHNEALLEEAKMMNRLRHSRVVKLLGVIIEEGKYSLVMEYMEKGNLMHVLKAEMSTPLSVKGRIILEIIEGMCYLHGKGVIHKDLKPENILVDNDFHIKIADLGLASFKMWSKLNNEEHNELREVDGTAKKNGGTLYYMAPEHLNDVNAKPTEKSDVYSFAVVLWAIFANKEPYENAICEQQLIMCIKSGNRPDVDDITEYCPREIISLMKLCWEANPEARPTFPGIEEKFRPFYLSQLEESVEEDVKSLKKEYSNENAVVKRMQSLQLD
Protocol: A solution was prepared containing 0.2 nM Anti GST-Tb (Cisbio, 61GSTTLB), 90.6 nM probe and 1 nM His-GST-TVMV-hRIPK1 (1-324) in FRET Buffer (20 mM HEPES, 10 mM MgCl2, 0.015% Brij-35, 4 mM DTT, 0.05 mg/mL BSA). Using Formulatrix Tempest, the detection antibody/enzyme/probe solution (2 mL) was dispensed into wells of a 1536 plate (Black Low Binding Polystyrene 1536 Plate (Corning, 3724)) containing 10 nL of compounds of interest at appropriate concentration in DMSO. The plate was incubated at rt for 1 h. FRET was measured using the EnVision plate reader (Excitation: 340 nm, Emission: 520 nm/495 nM). Total signal (0% inhibition) was calculated from wells containing 10 nL DMSO only.

SMILES	IC50 ([1]; Homo sapiens) [nM]	IC50 [2] [nM]	IC50 [1] [nM]
CNC(=O)c1n[nH]c2cc(-c3cnc(OC)c(C(=O)NCC4(c5ccccc5OC(F)(F)F)CC4)c3)ccc12 [Example 72, 6-{6-methoxy-5-[({1-[2-(tri-fluoromethoxy)phenyl]cyclo-propyl}methyl)carbamoyl]-pyridin-3-yl}-N-methyl-1H-indazole-3-carboxamide]	400	390	
[2H]C([2H])([2H])Oc1ncc(-c2ccc3c(C(=O)NC4CC4)n[nH]c3c2)cc1C(=O)NC1CCCC(C(=O)N2CCCC2)C1 (stereo not drawn) [Example 204]	84	12	
CNC(=O)c1n[nH]c2cc(-c3cnc(OC)c(C(=O)NC45CC6CC(C4)CC(c4ccccc4)(C6)C5)c3)ccc12 [Example 95, 6-{6-methoxy-5-[(3-phenyl-adamantan-1-yl)carbamoyl]-pyridin-3-yl}-N-methyl-1H-indazole-3-carboxamide]	9.3	17	
[2H]C([2H])([2H])NC(=O)c1n[nH]c2cc(-c3cnc(OC([2H])([2H])[2H])c(C(=O)NC(C)c4cc(F)ccc4C(F)(F)F)c3)ccc12 (stereo not drawn) [Example 212]	28	15	
[2H]C([2H])([2H])Oc1ncc(-c2ccc3c(C(=O)NC4CC4)n[nH]c3c2)cc1C(=O)N[C@H](C)c1cc(OC(F)(F)F)ccc1F [Example 201, N-cyclopropyl-6-(5-{[(1R)-1-[2-fluoro-5-(trifluoromethoxy)-phenyl]ethyl]carbamoyl}-6-(deutero)methoxypyridin-3-yl)-1H-indazole-3-carboxamide]	110	11	
[2H]C([2H])([2H])Oc1ncc(-c2ccc3c(C(=O)NC)n[nH]c3c2)cc1C(=O)NCC(C)(C)C(=O)OC(C)(C)C [Example 28, tert-butyl 3-{[2-(deutero)meth-oxy-5-[3-(methylcarbamoyl)-1H-indazol-6-yl]pyridin-3-yl]form-amido}-2,2-dimethylpropanoate, TFA]	37	17	
CNC(=O)c1n[nH]c2cc(-c3cnc(OC)c(C(=O)NC(C)c4ccccc4OC(F)(F)F)c3)ccc12 (single isomer, unassigned) [Example 15, 6-(6-methoxyd3-5-((1-(2-(trifluoromethoxy)phenyl)ethyl)carbamoyl)pyridin-3-yl)-N-methyl-1H-indazole-3-carboxamide]		5	
[2H]C([2H])([2H])Oc1ncc(-c2ccc3c(C(=O)NC)n[nH]c3c2)cc1C(=O)N[C@@H](C)c1cc(C(F)(F)F)ccc1F [Example 32, 6-(5-{[(1S)-1-[2-fluoro-5-(trifluoromethyl)phenyl]ethyl]-carbamoyl}-6-(deutero)meth-oxypyridin-3-yl)-N-methyl-1H-indazole-3-carboxamide]	19		
CNC(=O)c1[nH]nc2cc(-c3cnc(OC)c(C(=O)NC[C@@H]4C[C@H]4c4ccc(F)cc4)c3)ccc12 [Example 70, 6-[5-({[(1R,2R)-2-(4-fluoro-phenyl)cyclopropyl]methyl}-carbamoyl)-6-methoxypyridin-3-yl]-N-methyl-2H-indazole-3-carboxamide]	36		
CNC(=O)c1n[nH]c2cc(-c3cnc(OC)c(C(=O)NCC4CC4c4cccc(F)c4)c3)ccc12 (stereo not drawn) [Example 49, 6-[5-({[2-(3-fluorophenyl)-cyclopropyl]methyl}carbamoyl)-6-methoxypyridin-3-yl]-N-methyl-1H-indazole-3-carbox-amide]			21
[2H]C([2H])([2H])Oc1ncc(-c2ccc3c(C(=O)NC)n[nH]c3c2)cc1C(=O)N[C@H](C)c1cccc(OC(F)(F)F)c1 [Example 14, (R)-6-(6-methoxyd3-5-((1-(3-(trifluoromethoxy)phenyl)ethyl)carbamoyl)pyridin-3-yl)-N-methyl-1H-indazole-3-carboxamide]	37		
CNC(=O)c1n[nH]c2cc(-c3cnc(OC)c(C(=O)NCc4ccccc4N4CCC(CO)CC4)c3)ccc12 [Example 57, 6-{5-[({2-[4-(hydroxymethyl)-piperidin-1-yl]phenyl}methyl)-carbamoyl]-6-methoxypyridin-3-yl}-N-methyl-1H-indazole-3-carboxamide]	110		
CNC(=O)c1n[nH]c2cc(-c3cnc(OC)c(C(=O)NC(C)c4cccc(OC(F)(F)F)c4)c3)cc(F)c12 (stereo not drawn) [Example 147, 4-fluoro-6-[6-methoxy-5-({1-[3-(trifluoromethoxy)-phenyl]ethyl}carbamoyl)-pyridin-3-yl]-N-methyl-1H-indazole-3-carboxamide]	110		
CNC(=O)c1n[nH]c2cc(-c3cnc(OC)c(C(=O)NCc4cc(F)cc(F)c4OC)c3)ccc12 [Example 89, 6-(5-{[(3,5-difluoro-2-methoxy-phenyl)methyl]carbamoyl}-6-methoxy-pyridin-3-yl)-N-methyl-1H-indazole-3-carbox-amide]			85
[2H]C([2H])([2H])NC(=O)c1n[nH]c2cc(-c3cnc(OC([2H])([2H])[2H])c(C(=O)N[C@@H](C)c4cc(C(F)(F)F)ccc4F)c3)ccc12 [Example 213, 6-(5-{[(1S)-1-[2-fluoro-5-(trifluoro-methyl)phenyl]ethyl]carbamoyl}-6-(deutero)methoxypyridin-3-yl)-N-(deutero)methyl-1H-indazole-3-carboxamide]	21		
CNC(=O)c1n[nH]c2cc(-c3cnc(OC)c(C(=O)N[C@H]4CCN(C(=O)OC(C)(C)C)C4)c3)ccc12 [Example 136, tert-butyl (3S)-3-{2-methoxy-5-[3-(methylcarbamoyl)-1H-indazol-6-yl]pyridine-3-amido}-pyrrolidine-1-carboxylate]	480		
[2H]C([2H])([2H])Oc1ncc(-c2ccc3c(C(=O)NC)n[nH]c3c2)cc1C(=O)N[C@H](C)CC(=O)OC(C)(C)C [Example 29, tert-butyl (3R)-3-{[2-(deutero)-methoxy-5-[3-(methylcarbam-oyl)-1H-indazol-6-yl]pyridin-3-yl]formamido}butanoate]	76		
CNC(=O)c1n[nH]c2cc(-c3cnc(OC)c(C(=O)NCCC(O)c4ccc(OC)cc4)c3)ccc12 (stereo not drawn) [Example 38, 6-(5-{[3-hydroxy-3-(4-methoxy-phenyl)propyl]carbamoyl}-6-methoxypyridin-3-yl)-N-methyl-1H-indazole-3-carboxamide]	13		
CNC(=O)c1n[nH]c2cc(-c3cnc(OC)c(C(=O)N[C@H]4C[C@@H]4c4ccccc4)c3)ccc12 [Example 46, 6-(6-methoxy-5-{[(1S,2R)-2-phenylcyclopropyl]carbamoyl}-pyridin-3-yl)-N-methyl-1H-indazole-3-carboxamide]	4.4		
[2H]C([2H])([2H])NC(=O)c1n[nH]c2cc(-c3cnc(OC([2H])([2H])[2H])c(C(=O)N[C@H](C)c4cc(OC(F)(F)F)ccc4F)c3)ccc12 [Example 218, 6-(5-{[(1R)-1-[2-fluoro-5-(trifluoro-methoxy)phenyl]ethyl]carbamoyl}-6-(deutero)methoxypyridin-3-yl)-N-(deutero)methyl-1H-indazole-3-carboxamide]	32		
CCc1ccccc1CNC(=O)c1cc(-c2ccc3c(C(=O)NC)n[nH]c3c2)cnc1OC [Example 82, 6-(5-{[(2-ethylphenyl)methyl]-carbamoyl}-6-methoxy-pyridin-3-yl)-N-methyl-1H-indazole-3-carboxamide]	41		
